Calls of active or inactive are those of the source. The calls are words filed in the database; no cut-off is given here.
Columns and labels:
[1] = Inhibition of cupric ion-mediated amyloid beta (1 to 42) aggregation at 25 uM measured after 24 hrs by ThT fluorescence assay relative to control
Acetylcholinesterase = Acetylcholinesterase (Electrophorus electricus, UniProt O42275); assay: Inhibition of electric eel AChE using acetylthiocholine iodide as substrate measured after 15 mins by Ellman's method
[2] = system: BuChE (butyrylcholinesterase); assay: Inhibition of rat serum BuChE at 50 uM using S-butylthiocholine iodide as substrate measured after 15 mins by Ellman's method relative to control; settings: probe S-butylthiocholine iodide
[3] = Antioxidant activity assessed as trolox equivalent of AAPH-induced radical scavenging activity at 5 uM incubated for 15 mins prior to APPH challenge measured every minute for 90 mins by ORAC-FL assay; type: functional
[4] = biological target: T1, Amine oxidase [flavin-containing] B (Homo sapiens, UniProt P27338); assay: Inhibition of recombinant human MAO-B expressed in baculovirus infected BTI insect cells using kynuramine as substrate after 30 mins by fluorimetric method; type: cell-based
T1 sequence (P27338 whole entry): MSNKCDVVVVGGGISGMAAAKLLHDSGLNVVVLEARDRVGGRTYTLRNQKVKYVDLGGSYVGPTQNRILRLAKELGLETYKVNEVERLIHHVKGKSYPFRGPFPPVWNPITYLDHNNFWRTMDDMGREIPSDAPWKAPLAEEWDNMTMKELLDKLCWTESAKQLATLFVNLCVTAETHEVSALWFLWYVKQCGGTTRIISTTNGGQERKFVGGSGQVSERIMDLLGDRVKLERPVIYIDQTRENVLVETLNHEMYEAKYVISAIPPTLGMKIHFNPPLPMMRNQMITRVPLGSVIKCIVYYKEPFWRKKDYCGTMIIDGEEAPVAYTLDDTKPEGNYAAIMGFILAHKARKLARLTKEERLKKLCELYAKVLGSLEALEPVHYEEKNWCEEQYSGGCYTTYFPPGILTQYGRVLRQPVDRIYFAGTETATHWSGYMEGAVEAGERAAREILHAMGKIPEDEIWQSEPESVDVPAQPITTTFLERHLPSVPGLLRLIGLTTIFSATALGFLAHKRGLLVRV

Homo sapiens = species: Homo sapiens; assay: Selectivity index, ratio of IC50 for recombinant human MAO-A expressed in baculovirus infected BTI insect cells to IC50 for recombinant human MAO-B expressed in baculovirus infected BTI insect cells
[5] = biological target: Amyloid-beta precursor protein (Homo sapiens) (UniProt P05067); assay: Inhibition of self-induced amyloid beta (1 to 42) (unknown origin) aggregation at 25 uM measured after 24 hrs by ThT fluorescence assay relative to control
[6] = biological target: T2, Amine oxidase [flavin-containing] A (Homo sapiens, UniProt P21397); assay: Inhibition of recombinant human MAO-A expressed in baculovirus infected BTI insect cells using kynuramine as substrate after 30 mins by fluorimetric method
T2 sequence (P21397 whole entry): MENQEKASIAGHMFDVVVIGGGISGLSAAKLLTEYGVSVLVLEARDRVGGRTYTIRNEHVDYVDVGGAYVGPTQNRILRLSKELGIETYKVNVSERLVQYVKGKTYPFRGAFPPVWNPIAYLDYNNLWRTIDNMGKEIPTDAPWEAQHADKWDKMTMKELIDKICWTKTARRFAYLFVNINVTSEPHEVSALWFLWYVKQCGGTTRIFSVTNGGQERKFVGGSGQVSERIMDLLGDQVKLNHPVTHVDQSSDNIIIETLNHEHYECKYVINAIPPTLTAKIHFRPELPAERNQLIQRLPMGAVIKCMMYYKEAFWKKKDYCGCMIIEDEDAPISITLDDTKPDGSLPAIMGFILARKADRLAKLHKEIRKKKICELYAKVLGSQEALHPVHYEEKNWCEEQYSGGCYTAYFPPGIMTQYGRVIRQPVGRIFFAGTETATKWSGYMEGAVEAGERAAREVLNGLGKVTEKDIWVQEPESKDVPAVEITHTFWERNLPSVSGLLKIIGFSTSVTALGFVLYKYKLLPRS

[7] = Inhibition of rat serum BuChE using S-butylthiocholine iodide as substrate measured after 15 mins by Ellman's method
[8] = biological target: Acetylcholinesterase (Electrophorus electricus) (UniProt O42275); assay: Mixed-type inhibition of electric eel AChE using acetylthiocholine iodide as substrate preincubated for 15 mins followed by substrate addition by Lineweaver-Burk plot analysis
[9] = Cytotoxicity against human SH-SY5Y cells assessed as cell viability at 100 uM after 24 hrs by MTT assay relative to control; type: cell-based; settings: read-out: Activity
[10] = Cytotoxicity against human SH-SY5Y cells assessed as cell viability at 1 uM after 24 hrs by MTT assay relative to control; type: cell-based; settings: read-out: Activity
[11] = Metal chelating activity assessed as mole fraction of compound required to show 1:1.5 stoichiometry for Cu2+-compound complex at 37.5 uM after 30 mins by UV-visible spectrometry; type: functional
[12] = Metal chelating activity assessed as Zn2+-compound complex formation at 37.5 uM after 30 mins by UV-visible spectrometry; type: functional
[13] = Metal chelating activity assessed as Fe2+-compound complex formation at 37.5 uM after 30 mins by UV-visible spectrometry; type: functional
[14] = Cytotoxicity against human SH-SY5Y cells assessed as cell viability at 10 uM after 24 hrs by MTT assay relative to control; type: cell-based; settings: read-out: Activity
[15] = Metal chelating activity assessed as Al3+-compound complex formation at 37.5 uM after 30 mins by UV-visible spectrometry; type: functional
[16] = Permeability of the compound at 100 ug/ml after 18 hrs by PAMPA; type: physicochemical; settings: read-out: permeability
[17] = Metal chelating activity assessed as Cu2+-compound complex formation at 37.5 uM after 30 mins by UV-visible spectrometry; type: functional

Acetylcholinesterase, sequence (O42275 whole entry): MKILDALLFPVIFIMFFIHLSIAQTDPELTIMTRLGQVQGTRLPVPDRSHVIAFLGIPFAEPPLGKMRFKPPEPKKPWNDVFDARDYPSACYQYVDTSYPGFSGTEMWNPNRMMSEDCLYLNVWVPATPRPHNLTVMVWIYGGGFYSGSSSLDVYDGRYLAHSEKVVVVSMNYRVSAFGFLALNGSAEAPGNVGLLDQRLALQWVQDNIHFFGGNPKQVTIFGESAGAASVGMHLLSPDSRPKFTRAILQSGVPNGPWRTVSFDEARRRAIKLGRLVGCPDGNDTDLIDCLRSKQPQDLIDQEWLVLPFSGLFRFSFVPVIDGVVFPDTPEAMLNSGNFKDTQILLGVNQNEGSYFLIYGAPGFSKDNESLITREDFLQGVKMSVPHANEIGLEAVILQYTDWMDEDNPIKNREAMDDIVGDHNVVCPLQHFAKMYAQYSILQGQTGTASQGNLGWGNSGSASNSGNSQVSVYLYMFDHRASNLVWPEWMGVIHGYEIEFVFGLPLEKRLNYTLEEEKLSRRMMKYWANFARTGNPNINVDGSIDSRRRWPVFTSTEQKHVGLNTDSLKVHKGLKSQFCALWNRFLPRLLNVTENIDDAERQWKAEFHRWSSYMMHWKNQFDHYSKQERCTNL
Amyloid-beta precursor protein (Homo sapiens), sequence (P05067 whole entry): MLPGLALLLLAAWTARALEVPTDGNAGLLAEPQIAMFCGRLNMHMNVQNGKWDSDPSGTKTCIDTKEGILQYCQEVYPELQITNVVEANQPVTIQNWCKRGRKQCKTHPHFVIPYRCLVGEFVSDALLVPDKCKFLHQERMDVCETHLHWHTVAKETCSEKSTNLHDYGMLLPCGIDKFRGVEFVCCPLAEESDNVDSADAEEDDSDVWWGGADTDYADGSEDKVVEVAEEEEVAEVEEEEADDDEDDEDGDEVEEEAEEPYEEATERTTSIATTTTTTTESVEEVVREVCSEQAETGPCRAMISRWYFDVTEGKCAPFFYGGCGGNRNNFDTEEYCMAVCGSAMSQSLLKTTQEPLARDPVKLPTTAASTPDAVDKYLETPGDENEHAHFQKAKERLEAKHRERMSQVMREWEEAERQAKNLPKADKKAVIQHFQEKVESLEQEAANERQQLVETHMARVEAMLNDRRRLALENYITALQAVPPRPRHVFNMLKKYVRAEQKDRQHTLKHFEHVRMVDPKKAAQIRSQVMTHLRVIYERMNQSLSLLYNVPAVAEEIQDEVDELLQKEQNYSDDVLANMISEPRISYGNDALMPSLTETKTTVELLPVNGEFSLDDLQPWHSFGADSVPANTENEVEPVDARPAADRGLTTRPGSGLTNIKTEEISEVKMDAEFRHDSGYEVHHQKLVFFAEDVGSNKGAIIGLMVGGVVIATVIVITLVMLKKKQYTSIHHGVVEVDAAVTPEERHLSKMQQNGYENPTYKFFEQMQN
Acetylcholinesterase (Electrophorus electricus), sequence (O42275 24-633 limits assumed): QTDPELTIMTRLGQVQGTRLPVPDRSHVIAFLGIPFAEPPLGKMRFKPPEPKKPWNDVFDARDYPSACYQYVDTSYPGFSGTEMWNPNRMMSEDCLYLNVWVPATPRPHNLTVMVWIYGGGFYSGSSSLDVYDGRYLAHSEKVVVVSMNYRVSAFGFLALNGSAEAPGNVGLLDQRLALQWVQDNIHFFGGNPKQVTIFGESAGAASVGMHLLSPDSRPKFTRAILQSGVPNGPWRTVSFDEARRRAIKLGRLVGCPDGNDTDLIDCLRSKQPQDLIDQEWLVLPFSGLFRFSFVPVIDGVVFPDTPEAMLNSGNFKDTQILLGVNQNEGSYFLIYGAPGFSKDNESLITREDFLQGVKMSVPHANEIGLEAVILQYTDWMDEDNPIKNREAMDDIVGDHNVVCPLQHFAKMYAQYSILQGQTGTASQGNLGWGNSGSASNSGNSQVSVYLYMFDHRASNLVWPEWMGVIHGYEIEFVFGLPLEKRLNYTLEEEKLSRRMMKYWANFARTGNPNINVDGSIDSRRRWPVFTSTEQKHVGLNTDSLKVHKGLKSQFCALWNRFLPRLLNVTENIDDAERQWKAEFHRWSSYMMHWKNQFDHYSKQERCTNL

Row | SMILES | inhibition [1] | IC50 (Acetylcholinesterase) | inhibition at 0.25 h, 50 µM [2] | Activity [3] | IC50 [4] | Ratio IC50 (Homo sapiens) | inhibition [5] | IC50 [6] | IC50 [7] | inhibition [8] | viability at 24 h, 100 µM [9] | viability at 24 h, 1 µM [10] | Activity [11] | Activity [12] | Activity [13] | viability at 24 h, 10 µM [14] | Activity [15] | Papp at 18 h, 100 ug/ml [16] | Activity [17]
1 | CCN(CCCCOc1cc(O)c2c(=O)c3ccccc3sc2c1)Cc1ccc(N(C)C)cc1 | 81.9% | 25400 nM | 7.15% | 1.5 µMequiv/µM | 2200 nM | 0.45 | 77.1% | 1000 nM | – | – | – | – | – | – | – | – | – | – | –
2 | CN(CCCOc1cc(O)c2c(=O)c3ccccc3sc2c1)Cc1ccccc1 | 81.1% | 11200 nM | < 5% | 0.48 µMequiv/µM | 1730 nM | 9.25 | 40.5% | 16000 nM | – | – | – | – | – | – | – | – | – | – | –
3 | COc1cc2c(cc1OC)C(=O)C(CC1CCN(Cc3ccccc3)CC1)C2 (centres undefined) [DONEPEZIL] | – | – | – | – | – | – | – | – | 21400 nM | – | – | – | – | – | – | – | – | – | –
4 | O=c1c2ccccc2sc2cc(O)cc(O)c12 | 31.4% | 38900 nM | < 5% | 0.42 µMequiv/µM | 300 nM | 0.93 | 9.5% | 280 nM | – | – | – | – | – | – | – | – | – | – | –
5 | CCN(CCCOc1cc(O)c2c(=O)c3ccccc3sc2c1)Cc1ccccc1OC | 80% | 2790 nM | 17.3% | 0.68 µMequiv/µM | 1880 nM | 4.35 | 68.2% | 8170 nM | – | – | – | – | – | – | – | – | – | – | –
6 | CCN(CCCCOc1cc(O)c2c(=O)c3ccccc3sc2c1)Cc1ccccc1 | 82.1% | 22000 nM | < 5% | 1 µMequiv/µM | 270 nM | 1.26 | 75.8% | 340 nM | – | – | – | – | – | – | – | – | – | – | –
7 | CCN(CCCCOc1ccc(-c2coc3cc(OCCCCN(CC)Cc4ccccc4OC)cc(O)c3c2=O)cc1)Cc1ccccc1OC | 77.8% | – | 20% | 0.3 µMequiv/µM | – | – | – | – | – | – | – | – | – | – | – | – | – | – | –
8 | COc1cc(/C=C/C(=O)CC(=O)/C=C/c2ccc(O)c(OC)c2)ccc1O | 70% | – | – | 2.43 µMequiv/µM | – | – | – | – | – | – | – | – | – | – | – | – | – | – | –
9 | CCN(CCCCOc1cc(O)c2c(=O)c3ccccc3sc2c1)Cc1ccccc1OC | 82% | 15500 nM | < 5% | 0.57 µMequiv/µM | 880 nM | 1.16 | 89.4% | 1020 nM | – | – | – | – | – | – | – | – | – | – | –
10 | COc1ccccc1CN(C)CCCCOc1cc(O)c2c(=O)c3ccccc3sc2c1 | 88% | 9160 nM | 5.62% | 1.04 µMequiv/µM | 590 nM | 1.05 | 79.9% | 620 nM | – | – | – | – | – | – | – | – | – | – | –
11 | CN(CCCCOc1cc(O)c2c(=O)c3ccccc3sc2c1)Cc1ccccc1 | 88.6% | 12400 nM | < 5% | 1.18 µMequiv/µM | 370 nM | 1.54 | 79.5% | 570 nM | – | – | – | – | – | – | – | – | – | – | –
12 | COc1ccccc1CN(C)CCCCCCOc1cc(O)c2c(=O)c3ccccc3sc2c1 | 86.5% | 4280 nM | 14.9% | 0.66 µMequiv/µM | 380 nM | 2.71 | 68% | 1030 nM | – | – | – | – | – | – | – | – | – | – | –
13 | CCN(CCCCCCOc1cc(O)c2c(=O)c3ccccc3sc2c1)Cc1ccccc1N(C)C | 87.7% | 590 nM | 28.7% | 0.74 µMequiv/µM | 900 nM | 1.12 | 74.8% | 1010 nM | – | Active | 68.1% | 99.7% | 1.5 molar ratio | inactive | Active | 96.8% | inactive | 3.49 ×10⁻⁶ cm/s | Active
14 | CN(CCCCCCOc1cc(O)c2c(=O)c3ccccc3sc2c1)Cc1ccccc1 | 76.8% | 320 nM | < 5% | 0.37 µMequiv/µM | 350 nM | 1.63 | 47.5% | 570 nM | – | – | – | – | – | – | – | – | – | – | –
15 | CCN(CCCCOc1cc(O)c2c(=O)c3ccccc3sc2c1)Cc1ccccc1N(C)C | 82.1% | 2880 nM | 30.3% | 0.95 µMequiv/µM | 2020 nM | 0.76 | 72.1% | 1540 nM | – | – | – | – | – | – | – | – | – | – | –
16 | CCN(CCCCCCOc1cc(O)c2c(=O)c3ccccc3sc2c1)Cc1ccccc1 | 76.4% | 580 nM | 8.83% | 0.17 µMequiv/µM | 330 nM | 4.36 | 50.6% | 1440 nM | – | – | – | – | – | – | – | – | – | 4.12 ×10⁻⁶ cm/s | –
17 | CCN(CCCCCCOc1cc(O)c2c(=O)c3ccccc3sc2c1)Cc1ccccc1OC | 86.3% | 11500 nM | 13.9% | 0.83 µMequiv/µM | 460 nM | 2.83 | 78.7% | 1300 nM | – | – | – | – | – | – | – | – | – | – | –
18 | CCN(CCCOc1cc(O)c2c(=O)c3ccccc3sc2c1)Cc1ccc(N(C)C)cc1 | 85.4% | 17700 nM | < 5% | 1.38 µMequiv/µM | 3550 nM | 0.79 | 64.8% | 2790 nM | – | – | – | – | – | – | – | – | – | – | –
19 | COc1ccccc1CN(C)CCCOc1cc(O)c2c(=O)c3ccccc3sc2c1 | 77.8% | 28700 nM | 30.2% | 0.22 µMequiv/µM | 6090 nM | 1.04 | 45.2% | 6310 nM | – | – | – | – | – | – | – | – | – | – | –
20 | CCN(CCCOc1cc(O)c2c(=O)c3ccccc3sc2c1)Cc1ccccc1 | 70.9% | 18400 nM | 31.8% | 0.59 µMequiv/µM | 7130 nM | 1.85 | 46.9% | 13200 nM | – | – | – | – | – | – | – | – | – | – | –
21 | CCN(CCCOc1cc(O)c2c(=O)c3ccccc3sc2c1)Cc1ccccc1N(C)C | 75.7% | 250 nM | 22.4% | 0.35 µMequiv/µM | 3730 nM | 1.59 | 46.9% | 5940 nM | – | – | – | – | – | – | – | – | – | – | –
22 | CCN(CCCCCCOc1cc(O)c2c(=O)c3ccccc3sc2c1)Cc1ccc(N(C)C)cc1 | 91.3% | 33800 nM | < 5% | 1.37 µMequiv/µM | 390 nM | 3.21 | 76.3% | 1250 nM | – | – | – | – | – | – | – | – | – | – | –

Reference: ChEMBL document CHEMBL3992562, “Multifunctional thioxanthone derivatives with acetylcholinesterase, monoamine oxidases and β-amyloid aggregation inhibitory activities as potential agents against Alzheimer's disease” (Bioorg Med Chem, 2017)
